Test results reported in PubChem BioAssay (NCI).
Where “and” joins values, the source holds several entries; their conditions need not be identical. Equal values may be shown once.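 48-hour exposure; five concentrations; linearly interpolated endpoints. At the GI50, growth is halved. TGI is the concentration that stops growth completely.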

How the values were obtained:
Experiment in all cases: NCI-60 cell line screen, 48 h
[1] = test system: COLO 205 colon
[2] = test system: EKVX NSCLC
[3] = test system: HOP-92 NSCLC
[4] = test system: HS 578T breast
[5] = test system: HT29 colon
[6] = test system: NCI-H226 lung
[7] = test system: NCI-H23 lung
[8] = test system: OVCAR-5 ovarian
[9] = test system: RXF 393 renal
[10] = test system: T-47D breast

SMILES	GI50 [1] [µM]	TGI [1] [µM]	GI50 [2]	TGI [2] [µM]	GI50 [3] [µM]	TGI [3] [µM]	GI50 [4] [nM]	TGI [4] [µM]	GI50 [5] [µM]	TGI [5] [µM]	GI50 [6] [µM]	TGI [6] [µM]	GI50 [7] [µM]	TGI [7] [µM]	GI50 [8]	TGI [8] [µM]	GI50 [9]	TGI [9]	GI50 [10] [µM]	TGI [10] [µM]
CC(=O)Nc1c(I)c(C(=O)O)c(I)c(N(C)C(C)=O)c1I	> 100	> 100	> 100 µM	> 100	> 100	> 100	46400	> 100	> 100	> 100	> 100	> 100	> 100	> 100	> 100 µM	> 100	> 100 µM	> 100 µM	> 100	> 100
Cc1ccn2c(-c3csc(Nc4cccc(O)c4)n3)c(C)nc2c1	11.8	26.3			1.75	22.7	1170	29.3	4.13	18	14.1	57.4	1.01	19.7	9.29 µM	> 81.2	1.27 µM	7.26 µM	0.878	10.8
O=C(NCCSSCCNC(=O)/C(Cc1ccc(O)c(Br)c1)=N/O)/C(Cc1ccc(O)c(Br)c1)=N/O		6.82		> 24		22.9		> 50		> 21.4		41.9		13.1		13.5		2 µM		13.1
O=Cc1c[nH]c2ccc(-c3csc4ccccc34)cc12	4.46	> 100	2.75 µM	> 100	7.06	84.7	2300	9.55	3.34	> 100	3.7	> 100	18.2	> 100	88.1 µM	> 100	1.58 µM	5.13 µM	9.15	> 100
NS(=O)(=O)c1cccc(-c2cc3ccncc3cc2OCc2ccccc2)c1	10.7	> 25	9.67 µM	> 25	4.39	> 25	4200	> 18.4	6.05	16.8	9.03	> 25	> 18.4	> 25	14.8 µM	> 25	4.96 µM	> 21.8 µM	12.7	> 25
O=[N+]([O-])c1ccc(Oc2cccc(C(F)(F)F)c2)c([N+](=O)[O-])c1	2.64	6.04	7.11 µM	22.5	1.25	5.39	3990	32	4.68	16.2	2.11	5.92	2.15	12	4.08 µM	17.6	2.61 µM	7.87 µM	2.55	7.66
O=C(O)CC1C(=O)OC2C3COC(=O)c4cc(O)c(O)c(O)c4-c4c(cc(O)c(O)c4O)C(=O)OC2C(OC(=O)c2cc(O)c(O)c4c2C1C(O)C(=O)O4)C(OC(=O)c1cc(O)c(O)c(O)c1)O3 (configuration not stated)		> 100		66.8		52.6		> 100		26.4		> 100		> 100		> 100		> 100 µM		> 100
O=C(CCCCCNC1=CC(=O)c2ccccc2C1=O)NCCC[Te]c1ccccc1	0.416	1.36	0.259 µM	0.928	0.583	1.65	364	2.65	0.377	1.48	0.335	1.23	0.336	1.48	0.362 µM	1.48	1.54 µM	4.11 µM	0.676	2.59
C[C@@H](Oc1cc(-c2cnn(C3CC4(CNC4)C3)c2)cnc1N)c1c(Cl)ccc(F)c1Cl	1.38	3.3			0.848	5.12	3870	27.1	1.7	5.98	6.81	24.3	1.97	16	1.82 µM	14.2	3.39 µM	12.7 µM	3.89	16.7
COc1ccc(C2=NNC(c3cc(Cc4ccc(O)c(C5CC(c6ccc(OC)cc6)=NN5)c4)ccc3O)C2)cc1 (configuration not stated)	19.4	> 100	23.3 µM	> 100	8.28	> 100	5580	68	32.2	> 100	6.08	> 100	5.3	> 100	17.1 µM	88	4.18 µM	48.3 µM	4.61	> 100
Nc1cccc2c1CN(C1CCC(=O)NC1=O)C2=O (configuration not stated)	> 100	> 100	> 100 µM	> 100	> 34.2	> 100	> 100000	> 100	> 100	> 100	> 100	> 100	> 100	> 100	> 100 µM	> 100	> 100 µM	> 100 µM	> 100	> 100
Cc1cc(Br)c2nsnc2c1[N+](=O)[O-]	3.01	7.97	1.76 µM	5.73	7.24	22.1	2970	18.4	2.04	4.31	7.13	19.2	1.9	3.9	4.55 µM	15.9	6.66 µM	18.5 µM	0.921	5.96
CC[C@@]1(OC(=O)C(N)CCC(=O)O)C(=O)OCc2c1cc1n(c2=O)Cc2cc3ccccc3nc2-1 (some centres not stated)		3.03		> 57.8		1.57		> 100		> 100		0.192		0.389		8.09		0.757 µM		> 100
O=[N+]([O-])c1ccc(N/N=C/c2ccccc2O)nc1	0.544	> 100	3.58 µM	> 100	3.74	> 100	> 100000	> 100	0.975	> 100	4.6	> 100	2.45	> 100	7.33 µM	> 100	3.48 µM	> 100 µM	3.2	> 100
O=C(O)c1ccccc1-c1ccccc1C(=O)Nc1ccc2c(c1)Cc1ccccc1-2		31.2		54.8		> 100		> 100		70.1		> 100		36.6		49.2		> 100 µM		> 100
CCOC(=O)C1=C(C)NC(C)=C(C(=O)OCC)C1c1cc(Br)c(O)c(OC)c1	10.3	22.9	7.65 µM	34.4	1.82	12.3	2540	9.47	4.72	18.2	2.77	12.4	4.81	22.4	4.32 µM	15.9	1.98 µM	6.05 µM	8.53	46.6
CCOC(=O)c1c(C(F)(F)F)n([O-])c2ccc(Cl)cc2[n+]1=O	1.65	3.29	2.05 µM	5.14	1.17	2.64	2170	5.13	1.9	3.83	2.13	5.78	1.71	3.43	1.76 µM	3.32	1.82 µM	3.77 µM	2.03	4.38
CC[C@@]1(O)C(=O)OCc2c1cc1n(c2=O)Cc2cc3c(Cl)c4c(cc3nc2-1)OCO4	1.05	> 100	5.93 µM and 1.91 µM	> 100	< 0.001	0.0801		> 100		7.85	< 0.001	0.0701	< 0.001		0.985 µM and 0.193 µM	1.69	0.0371 µM and 0.014 µM	2.22 µM and 0.23 µM	< 0.001	> 100
Cc1cc2oc(=O)c(Cl)c(Cl)c2c(C)c1Cl		8.09		34.5		7.45		9.64		22.8		33.2		39.7		27.8		6.03 µM		40.2
Cc1ccc2nc3sc(=O)sc3nc2c1		27.8		27.2		28.9		61.8		31.2		27.9		42.5		30.8		67.8 µM		> 100
N#Cc1ccc(N2Cc3cc(Cl)ccc3OC3=C2C(=O)N(Cc2ccc(F)cc2)C3=O)cc1	1.57	3.65	1.08 µM	4.24	0.58	1.32	1020	13.6	0.587	1.35	1.62	3.75	0.811	2.7	0.737 µM	1.93	0.481 µM	0.943 µM	0.502	1.18
O=C1c2ccccc2-c2c1c1c(O)cccc1n2CCCc1ccccc1	17.8	> 100	10.3 µM	98.3	45.3	> 100	41700	> 100	42.8	> 100	11.2	50.9	18.6	> 100	64 µM	> 100	5.87 µM	68.5 µM	13	> 100
Cc1cn(C2CC(N=[N+]=[N-])C(CO)O2)c(=O)[nH]c1=O (configuration not stated)	433	> 1000	> 1000 µM	> 1000	> 1000	> 1000		> 1000		> 1000	> 1000	> 1000	> 1000	> 1000	> 1000 µM	> 1000			> 1000	> 1000
Cc1ccc(-n2nnc3c(sc4ccccc43)c2=O)cc1	6.23	> 100			1.54	6.82	2180	8.71	3.59	> 100	9.55	> 100	42.8	> 100	> 100 µM	> 100	16.8 µM	> 100 µM	30.4	> 100
O=c1[nH]cc(CO)c(=O)[nH]1	> 100	> 100			> 100	> 100	> 100000	> 100	> 100	> 100			> 100	> 100	> 100 µM	> 100	> 100 µM	> 100 µM	> 100	> 100
Cc1ccc(NC(C(=O)c2ccccc2)c2ccccc2)cc1 (configuration not stated)	3.02	13.7	1 µM	6	3.58	8.95	2090	7.79			18	> 100	3.5	> 100	21.6 µM	> 100	17.6 µM	46.3 µM	2.02	11.5
Cc1ccc(-c2c3c(N)nc(-c4ccncc4)nc3nc3c2c(C)nn3-c2ccccc2)cc1	35.3	> 37.5			5.61	22	5920	> 37.5	11.5	> 37.5	14	> 37.5	21.6	> 37.5	> 37.5 µM	> 37.5	3.88 µM	33 µM	1.84	> 37.5
C/C(=C\CCc1ccsc1)CC/C=C(\C)CCCN1CCN(CCO)CC1	1.89	3.95			1.73	7.48	2700	8.07	2.04	5.01	5.68	24.3	3.37	13.4	4.04 µM	17.6	1.82 µM	5.42 µM	2.03	5.09
